Consider 2 compounds from publication PMC12589546, “A plastid carbohydrate carrier mediates ribose recycling from nucleotide catabolism and glucose export from starch degradation” (Nature Communications, 2025).

The test addresses T1, At-pGlcT (At-pGlcTNTD) (Arabidopsis thaliana, UniProt B9DGP1).
T1 construct: gene At5g16150; plastid transit peptide (residues 1-82) replaced by E. coli PhoR residues 1-54 (membrane-targeting NTD); C-terminal 6xHis tag kept; expressed in E. coli sugar-uptake mutants, intact-cell uptake
T1 sequence (B9DGP1 83-546): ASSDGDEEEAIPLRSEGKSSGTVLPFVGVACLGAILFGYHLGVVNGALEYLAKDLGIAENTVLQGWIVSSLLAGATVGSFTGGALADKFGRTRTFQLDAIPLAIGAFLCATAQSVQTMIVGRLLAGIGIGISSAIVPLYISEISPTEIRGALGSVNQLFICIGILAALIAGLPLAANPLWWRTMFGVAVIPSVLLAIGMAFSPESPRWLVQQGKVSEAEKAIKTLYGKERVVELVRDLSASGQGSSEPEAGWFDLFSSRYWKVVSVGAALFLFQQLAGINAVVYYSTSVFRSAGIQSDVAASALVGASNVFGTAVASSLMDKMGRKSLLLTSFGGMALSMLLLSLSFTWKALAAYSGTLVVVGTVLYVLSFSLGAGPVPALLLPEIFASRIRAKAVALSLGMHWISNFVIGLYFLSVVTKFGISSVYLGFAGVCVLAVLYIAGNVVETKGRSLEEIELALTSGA
In words: competition with […]-ribose uptake in E. coli ΔrbsC ΔxylH ΔalsC. The test is classed as cell-based. Conditions: 1 mM 14C-ribose, 10 mM unlabelled sugar, pH 7, 37 °C, 30 min, competitive.

With `OC[C@H]1OC(O)[C@H](O)[C@@H](O)[C@@H]1O` (some centres unmarked) [glucose], under “14C-glucose uptake also measured”, the “inhibition of 14C-ribose uptake at 10 mM” value is given as “but also glucose was an equally efficient suppressor”.
Take `OCC1(O)OC[C@@H](O)[C@@H](O)[C@@H]1O` (some centres unmarked) [fructose]: the “inhibition of 14C-ribose uptake at 10 mM” value (3H-fructose uptake also measured) is “its presence also reduced the uptake of the radioactively labeled ribose”.
